Literature values as cited in patent US6693094B2, “Biguanide and sulfonylurea formulations for the prevention and treatment of insulin resistance and type 2 diabetes mellitus” (Chrono RX LLC, priority 2001, dated 2004).

How the values were obtained:
[1] = system: patients with essential hypertension and coronary artery disease; conditions: 60 mg twice daily for 8 weeks, oral
[2] = system: insulin-resistant type 2 diabetes patients
[3] = system: obese type 2 diabetes patients; conditions: 600 mg/day, used alone
[4] = in vivo
[5] = system: pancreatic islets; conditions: islets exposed to IL-1 beta
[6] = system: insulin secreting β-cells; conditions: hyperglycemic conditions
[7] = in vivo; remark: listed apart in the source
[8] = system: perfused rat hearts
[9] = in vivo; remark: listed apart in the source
[10] = target: sulfonylurea receptor (Homo sapiens, UniProt Q09428); conditions: sulfonylurea receptors of the β-cell membrane
Sequence of sulfonylurea receptor (Q09428 whole entry): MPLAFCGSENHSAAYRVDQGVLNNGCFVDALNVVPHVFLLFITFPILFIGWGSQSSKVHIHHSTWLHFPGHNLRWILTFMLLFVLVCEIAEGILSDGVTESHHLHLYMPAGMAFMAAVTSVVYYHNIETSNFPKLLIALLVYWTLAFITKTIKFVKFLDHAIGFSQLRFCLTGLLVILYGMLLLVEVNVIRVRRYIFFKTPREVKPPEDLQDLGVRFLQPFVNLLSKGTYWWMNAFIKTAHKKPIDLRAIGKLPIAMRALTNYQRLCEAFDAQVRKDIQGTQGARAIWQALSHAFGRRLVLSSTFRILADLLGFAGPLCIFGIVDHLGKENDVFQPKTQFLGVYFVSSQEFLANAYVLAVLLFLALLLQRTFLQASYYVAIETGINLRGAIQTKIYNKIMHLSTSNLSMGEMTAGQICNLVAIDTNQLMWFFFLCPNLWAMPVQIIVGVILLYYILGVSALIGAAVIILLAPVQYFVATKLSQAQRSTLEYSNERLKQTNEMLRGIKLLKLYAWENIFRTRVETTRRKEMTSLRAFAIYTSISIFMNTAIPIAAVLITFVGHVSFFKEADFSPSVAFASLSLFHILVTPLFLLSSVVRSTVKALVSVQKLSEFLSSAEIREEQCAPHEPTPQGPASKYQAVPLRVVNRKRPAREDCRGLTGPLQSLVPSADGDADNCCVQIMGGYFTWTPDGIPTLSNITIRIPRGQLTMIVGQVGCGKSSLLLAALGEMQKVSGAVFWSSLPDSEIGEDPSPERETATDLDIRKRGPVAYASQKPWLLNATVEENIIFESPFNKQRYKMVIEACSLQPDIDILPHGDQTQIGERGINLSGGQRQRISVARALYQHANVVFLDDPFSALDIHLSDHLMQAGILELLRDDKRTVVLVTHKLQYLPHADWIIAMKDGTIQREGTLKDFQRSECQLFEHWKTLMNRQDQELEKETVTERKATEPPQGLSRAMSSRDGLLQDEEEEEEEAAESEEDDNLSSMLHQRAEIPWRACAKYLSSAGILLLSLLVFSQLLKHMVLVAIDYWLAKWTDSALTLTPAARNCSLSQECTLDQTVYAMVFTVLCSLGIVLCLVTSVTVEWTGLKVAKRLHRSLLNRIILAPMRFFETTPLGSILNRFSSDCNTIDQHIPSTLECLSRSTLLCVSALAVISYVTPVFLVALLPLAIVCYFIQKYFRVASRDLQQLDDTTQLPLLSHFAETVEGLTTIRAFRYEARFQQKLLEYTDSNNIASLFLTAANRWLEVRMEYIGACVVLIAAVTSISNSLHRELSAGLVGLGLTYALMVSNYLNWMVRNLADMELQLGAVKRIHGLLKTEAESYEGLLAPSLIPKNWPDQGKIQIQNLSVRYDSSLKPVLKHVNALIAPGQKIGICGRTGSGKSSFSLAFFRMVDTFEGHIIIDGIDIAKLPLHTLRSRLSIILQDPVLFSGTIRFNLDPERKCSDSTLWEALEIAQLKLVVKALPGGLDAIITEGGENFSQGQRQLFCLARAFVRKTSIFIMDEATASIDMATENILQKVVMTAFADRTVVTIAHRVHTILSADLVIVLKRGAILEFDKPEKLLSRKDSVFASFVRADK
Sequence of sulfonylurea receptor (Q14654 whole entry partner): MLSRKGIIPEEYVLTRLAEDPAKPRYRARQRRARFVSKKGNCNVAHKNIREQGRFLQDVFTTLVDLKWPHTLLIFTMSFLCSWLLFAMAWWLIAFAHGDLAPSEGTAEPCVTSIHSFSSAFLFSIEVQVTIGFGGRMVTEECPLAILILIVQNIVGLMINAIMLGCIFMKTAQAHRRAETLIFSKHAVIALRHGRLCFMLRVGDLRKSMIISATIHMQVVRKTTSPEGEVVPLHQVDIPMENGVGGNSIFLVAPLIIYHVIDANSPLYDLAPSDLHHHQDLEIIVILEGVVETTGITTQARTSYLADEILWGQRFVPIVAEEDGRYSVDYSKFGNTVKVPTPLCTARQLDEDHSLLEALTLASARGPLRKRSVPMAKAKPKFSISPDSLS

COC1=C(OC)C(=O)C(C/C=C(\C)CC/C=C(\C)CC/C=C(\C)CC/C=C(\C)CC/C=C(\C)CC/C=C(\C)CC/C=C(\C)CC/C=C(\C)CC/C=C(\C)CCC=C(C)C)=C(C)C1=O [coenzyme Q10, Ubiquinone]
HDL-cholesterol [1]: increased
systolic and diastolic blood pressure, fasting and 2-h plasma insulin, glucose, triglycerides, lipid peroxides, malondialdehyde and diene conjugates [1]: all reduced

O=S(=O)([O-])[O-].[O]=[V+2] [vanadyl sulfate]
time effects are sustained after discontinuation ([2]; 100 mg/day for 3 weeks): up to 2 weeks
hepatic and peripheral insulin sensitivity ([2]; 100 mg/day, after 3 weeks): appear to improve

vitamin E
insulin efficiency and fibrinolysis [3]: may further worsen insulin efficiency and increase fibrinolysis

CC(=O)c1ccc(S(=O)(=O)NC(=O)NC2CCCCC2)cc1 [Acetohexamide]
Duration of Action [4]: 12 to 18 h

CCCNC(=O)NS(=O)(=O)c1ccc(Cl)cc1 [Chlorpropamide]
Duration of Action [4]: 60 h

NC(=O)c1cccnc1 [nicotinamide, Nicotinamide]
concentration of maximum recovery of glucose-induced insulin secretion [5]: 25 mmol/L

CCC1=C(C)CN(C(=O)NCCc2ccc(S(=O)(=O)NC(=O)N[C@H]3CC[C@H](C)CC3)cc2)C1=O [Glimepiride]
Duration of Action [4]: 16 to 24 h

O=C1O[C@H]([C@@H](O)CO)C(O)=C1O [ascorbate, ascorbic acid]
decrease of cellular insulin glycation [6]: 66-80%

[Cr] [Cr, Chromium]
reduction of metformin requirements [7]: more than one-half

COc1ccc(Cl)cc1C(=O)NCCc1ccc(S(=O)(=O)NC(=O)NC2CCCCC2)cc1 [Glyburide]
glycolytic flux and lactate production [8]: dramatic increase

CN(C)C(=N)N=C(N)N [Metformin, metformin]
frequency of lactic acidosis [9]: 3 cases per 100,000 patient-years
incidence of lactic acidosis [9]: 0.03 /1,000 patient-years exposure

CCCCNC(=O)NS(=O)(=O)c1ccc(C)cc1 [Tolbutamide]
Duration of Action [4]: 6 to 12 h

Cc1cnc(C(=O)NCCc2ccc(S(=O)(=O)NC(=O)NC3CCCCC3)cc2)cn1 [Glipizide]
Duration of Action [4]: 12 to 24 h
concentration range that saturates receptors [10]: low nM
